Measured values reported in patent US9205139B2, “Immunomodulatory methods and systems for treatment and/or prevention of aneurysms” (priority 2010, dated 2015).
Peptide text beside a SMILES is read from it.

Tests used:
[1] = Circulating cholesterol and body weight of immunized mice; format: in vivo; conditions: n = 10; mean±Std
Excerpt: Immunization protocols Male apoE (−/−) mice (Jackson Laboratories) were housed in an animal facility accredited by the American Association of Accreditation of Laboratory Animal Care and kept on a 12-hour day/night cycle with unrestricted access to water and food. The Institutional Animal Care and Use Committee of Cedars-Sinai Medical Center approved the experimental protocols. […] Mice, maintained on normal chow diet, received subcutaneous primary immunization in the dorsal area between scapulas at 6-7 weeks of age, followed by a booster at 9 and 12 weeks of age. One week after last booster, diet was switched to high cholesterol chow (TD 88137, Harlan-Teklad) and continued until euthanasia at the age of 25 weeks. Separate groups of mice receiving PBS or cBSA/alum at the same immunization time-points served as control. Some mice were sacrificed at 8 or 13 weeks of age to assess immune response against p210.
The vaccine preparation consisted of the p210 peptide (Euro-Diagnostica AB, Sweden) conjugated to cationic bovine serum albumin (cBSA) as carrier using a method described previously^3;4. Alum was used as adjuvant and mixed with peptide/cBSA conjugated with 1:1 ratio in volume. Peptide conjugation was performed on the day of immunization and freshly mixed with alum just prior to each immunization. […]

atherosclerosis = conditions: WO 02/080954, Table B; cited from earlier work

Row | Compound | Body weight [1] | percentage reduction of atherosclerosis (atherosclerosis) [%]
1 | CC(C)C[C@H](NC(=O)[C@H](CC(=O)O)NC(=O)[C@H](Cc1ccccc1)NC(=O)[C@H](CO)NC(=O)[C@H](CCC(N)=O)NC(=O)[C@H](CCCCN)NC(=O)[C@@H](NC(=O)[C@@H](NC(=O)[C@@H](N)CCCCN)[C@@H](C)O)[C@@H](C)O)C(=O)N[C@@H](CO)C(=O)N[C@H](C(=O)N[C@@H](CCCCN)C(=O)N[C@@H](C)C(=O)N[C@@H](CCC(N)=O)C(=O)N[C@@H](Cc1ccc(O)cc1)C(=O)N[C@@H](CCCCN)C(=O)N[C@@H](CCCCN)C(=O)N[C@@H](CC(N)=O)C(=O)N[C@@H](CCCCN)C(=O)N[C@@H](Cc1c[nH]cn1)C(=O)O)C(C)C [p210, KTTKQ SFDLS VKAQY KKNKH] (H-KTTKQSFDLSVKAQYKKNKH-OH) | without affecting | –
2 | EEEML ENVSL VCPKD ATRFK [p1] | – | 31
3 | HTFLI YITEL LKKLQ STTVM (HTFLIYITELLKKLQSTTVM) [p301] | – | 55.2
4 | IEIGL EGKGF EPTLE ALFGK (IEIGLEGKGFEPTLEALFGK) [p45] | – | 47.4
